Measured values published in PubChem BioAssay (NCI).
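Step 1: Grow cells in 96-well plates. Step 2: Expose to compound for 48 hours at 5 concentrations. Step 3: Interpolate endpoints linearly; if unreached, use highest concentration. TGI marks complete inhibition of growth.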

Columns and labels:
Assay in all cases: NCI tumour cell line growth inhibition, 48 h
HOP-18 NSCLC = test system: HOP-18 NSCLC
XF 498 CNS = test system: XF 498 CNS
DMS 273 small cell lung = test system: DMS 273 small cell lung
DLD-1 colon = test system: DLD-1 colon
RXF-631 renal = test system: RXF-631 renal
LXFL 529 NSCLC = test system: LXFL 529 NSCLC
P388/ADR leukemia = test system: P388/ADR leukemia
P388 leukemia = test system: P388 leukemia
SN12K1 renal = test system: SN12K1 renal

**Q.** Which TGI (HOP-18 NSCLC) does the source give for `C[C@]12CCC(=O)C=C1CC[C@@H]1[C@@H]2[C@@H](O)C[C@@]2(C)[C@H]1CC[C@]2(O)C(=O)COC(=O)COCC(=O)O` here?
**A.** > 100 µM

**Q.** And the TGI (XF 498 CNS)?
**A.** > 100 µM

**Q.** What about the TGI (DMS 273 small cell lung) of the same molecule?
**A.** > 100 µM

**Q.** And the TGI (DLD-1 colon)?
**A.** > 100 µM

**Q.** With `CN(C)c1ccc(C(=C(c2ccc(N(C)C)cc2)c2ccc(N(C)C)cc2)c2ccc(N(C)C)cc2)cc1` as the molecule, how does the TGI (HOP-18 NSCLC) read?
**A.** 26.1 µM

**Q.** And the TGI (DMS 273 small cell lung)?
**A.** 38.9 µM

**Q.** What about the TGI (RXF-631 renal) of the same molecule?
**A.** 40.6 µM

**Q.** What about the TGI (LXFL 529 NSCLC) of the same molecule?
**A.** 25.6 µM

**Q.** What about the TGI (DLD-1 colon) of the same molecule?
**A.** 41.5 µM

**Q.** With `COc1cc2c(cc1OC)C(C(CO)CO)N(CC(O)CCl)CC2` (stereo unspecified) as the molecule, how does the TGI (XF 498 CNS) read?
**A.** > 100 µM

**Q.** What about the TGI (DMS 273 small cell lung) of the same molecule?
**A.** > 100 µM

**Q.** And the TGI (RXF-631 renal)?
**A.** > 100 µM

**Q.** What about the TGI (LXFL 529 NSCLC) of the same molecule?
**A.** > 100 µM

**Q.** And the TGI (DLD-1 colon)?
**A.** > 100 µM

**Q.** With `O=C(/N=C/c1c(O)c2ccccc2oc1=O)Nc1ccccc1` as the molecule, how does the TGI (HOP-18 NSCLC) read?
**A.** > 100 µM

**Q.** And the TGI (XF 498 CNS)?
**A.** > 100 µM

**Q.** What about the TGI (DMS 273 small cell lung) of the same molecule?
**A.** > 100 µM

**Q.** And the TGI (LXFL 529 NSCLC)?
**A.** > 100 µM

**Q.** What about the TGI (DLD-1 colon) of the same molecule?
**A.** > 100 µM

**Q.** `COc1ccc(-c2cc(=O)c3cc4c(cc3[nH]2)OCO4)cc1OC` was tested. Which TGI (HOP-18 NSCLC) did it give?
**A.** > 100 µM

**Q.** What about the TGI (XF 498 CNS) of the same molecule?
**A.** > 100 µM

**Q.** And the TGI (DMS 273 small cell lung)?
**A.** > 100 µM

**Q.** What about the TGI (LXFL 529 NSCLC) of the same molecule?
**A.** > 100 µM

**Q.** And the TGI (DLD-1 colon)?
**A.** > 100 µM

**Q.** `N#CC1=C(N)n2c(s/c(=C\c3ccc(Cl)cc3)c2=O)=C(c2nc3ccccc3[nH]2)C1c1ccc(Cl)cc1` (stereo unspecified) was tested. Which TGI (XF 498 CNS) did it give?
**A.** 3.38 µM

**Q.** What about the TGI (DMS 273 small cell lung) of the same molecule?
**A.** 6.23 µM

**Q.** And the TGI (LXFL 529 NSCLC)?
**A.** 4.58 µM

**Q.** What about the TGI (DLD-1 colon) of the same molecule?
**A.** 15.4 µM

**Q.** What does the source list for `O=c1[nH]c(=O)n(C2OC(COP(=O)(O)OP(=O)(O)OC3OC(CO)C(O)C(O)C3O)C(O)C2O)cc1F` (stereo unspecified)?
**A.** TGI (HOP-18 NSCLC): > 100 µM; TGI (XF 498 CNS): 16.1 µM; TGI (RXF-631 renal): > 100 µM; TGI (LXFL 529 NSCLC): > 100 µM; TGI (DLD-1 colon): > 100 µM

**Q.** How did the TGI (HOP-18 NSCLC) turn out when `NC(CCCC(N)P(=O)(O)c1ccccc1)P(=O)(O)c1ccccc1` (stereo unspecified) was run?
**A.** > 261 µM

**Q.** What about the TGI (XF 498 CNS) of the same molecule?
**A.** > 261 µM

**Q.** And the TGI (DMS 273 small cell lung)?
**A.** > 261 µM

**Q.** And the TGI (LXFL 529 NSCLC)?
**A.** > 261 µM

**Q.** And the TGI (DLD-1 colon)?
**A.** > 261 µM

**Q.** `Cc1ccc(N2Cc3c(ccc4ccccc34)OP2(=O)Oc2ccc(Cl)c(C)c2)cc1` (stereo unspecified) was tested. Which TGI (HOP-18 NSCLC) did it give?
**A.** > 100 µM

**Q.** And the TGI (XF 498 CNS)?
**A.** > 100 µM

**Q.** What about the TGI (DMS 273 small cell lung) of the same molecule?
**A.** > 100 µM

**Q.** And the TGI (P388/ADR leukemia)?
**A.** > 100 µM

**Q.** What about the TGI (P388 leukemia) of the same molecule?
**A.** > 100 µM

**Q.** What about the TGI (DLD-1 colon) of the same molecule?
**A.** > 100 µM

**Q.** What about the TGI (SN12K1 renal) of the same molecule?
**A.** > 100 µM

**Q.** Which results are given for `CC(C)OP(=O)(OC(C)C)/C(I)=N/Nc1ccc([N+](=O)[O-])cc1`?
**A.** TGI (XF 498 CNS): > 100 µM; TGI (DMS 273 small cell lung): > 100 µM; TGI (LXFL 529 NSCLC): > 100 µM; TGI (DLD-1 colon): > 100 µM

**Q.** With `N[C@H](C(=O)O)[C@H]1ON=C(Cl)[C@@H]1O` as the molecule, how does the TGI (HOP-18 NSCLC) read?
**A.** > 550 µM

**Q.** What about the TGI (XF 498 CNS) of the same molecule?
**A.** > 301 µM

**Q.** And the TGI (DMS 273 small cell lung)?
**A.** > 550 µM

**Q.** And the TGI (P388/ADR leukemia)?
**A.** 46.4 µM

**Q.** What about the TGI (P388 leukemia) of the same molecule?
**A.** 17.5 µM

**Q.** And the TGI (DLD-1 colon)?
**A.** > 550 µM

**Q.** What about the TGI (SN12K1 renal) of the same molecule?
**A.** > 324 µM

**Q.** Which TGI (HOP-18 NSCLC) does the source give for `Cc1cccc2c(=O)c([Se]c3coc4c(C)cccc4c3=O)coc12` here?
**A.** 41.2 µM

**Q.** And the TGI (XF 498 CNS)?
**A.** 34.8 µM

**Q.** What about the TGI (DMS 273 small cell lung) of the same molecule?
**A.** > 100 µM

**Q.** And the TGI (LXFL 529 NSCLC)?
**A.** 29.2 µM

**Q.** What about the TGI (DLD-1 colon) of the same molecule?
**A.** 41.5 µM

**Q.** Which results are given for `CC(NC(=O)C(C)NC(=O)C(N)CCP(C)(=O)O)C(=O)O` (stereo unspecified)?
**A.** TGI (HOP-18 NSCLC): > 100 µM; TGI (XF 498 CNS): > 100 µM; TGI (DMS 273 small cell lung): > 100 µM; TGI (P388/ADR leukemia): > 100 µM; TGI (P388 leukemia): > 31.6 µM; TGI (DLD-1 colon): > 100 µM; TGI (SN12K1 renal): > 100 µM

**Q.** Which results are given for `Nc1nc(SCc2ccc([N+](=O)[O-])cc2)nc2c1ncn2C1OC(COP(=O)(O)O)C(O)C1O` (stereo unspecified)?
**A.** TGI (XF 498 CNS): > 100 µM; TGI (DMS 273 small cell lung): > 100 µM; TGI (LXFL 529 NSCLC): > 100 µM; TGI (DLD-1 colon): > 100 µM

**Q.** Which results are given for `Cc1c(Cl)c2ccccc2n1S(=O)(=O)c1ccccc1`?
**A.** TGI (XF 498 CNS): > 100 µM; TGI (DMS 273 small cell lung): > 100 µM; TGI (LXFL 529 NSCLC): > 100 µM; TGI (DLD-1 colon): > 100 µM
